{"source": "patent US7833967B2", "about": "“Synthetic antimicrobial polypeptides” (priority 2003, dated 2010)", "system": "E. coli TOP10", "assay": "Suicide expression system (SES) growth inhibition", "assay_type": "cell-based", "key": {"[1]": {"details": "Table 5, mixed-motif library, re-tested in the Bioscreen C"}, "[2]": {"details": "Table 3, variants of SEQ ID NO:5, re-tested in the Bioscreen C"}, "[3]": {"details": "Table 4, variants of SEQ ID NO:10, re-tested in the Bioscreen C"}}}
{"substance": "225 (RRRPPRLPRPFPIRPPPRVPRPIPIRP; Synthetic antimicrobial peptide) [compound 225]", "values": [{"measurement": "Growth inhibition (%)", "setting": "[1]", "value": 97, "unit": "%"}]}
{"substance": "32 (RRRPRPFPRPFPHPIPRPLPRPFPRPI; Synthetic antimicrobial peptide) [compound 32]", "values": [{"measurement": "Growth inhibition (%)", "setting": "[2]", "value": 77, "unit": "%"}]}
{"substance": "213 (RRRPPRLPRPFPFRPPPRLPRPFPIRP; Synthetic antimicrobial peptide) [compound 213]", "values": [{"measurement": "Growth inhibition (%)", "setting": "[1]", "value": 94, "unit": "%"}]}
{"substance": "263 (RRRPPRLPRPIPVRPPPRVPRPIPLRP; Synthetic antimicrobial peptide) [compound 263]", "values": [{"measurement": "Growth inhibition (%)", "setting": "[1]", "value": 94, "unit": "%"}]}
{"substance": "198 (RRRPFRPPFRPPFRPPFRPPFRPPFRP; Synthetic antimicrobial peptide) [compound 198]", "values": [{"measurement": "Growth inhibition (%)", "setting": "[3]", "value": 91, "unit": "%"}]}
{"substance": "148 (RRRPIRPPFRPPFRPPFRPPFRPPLRP; Synthetic antimicrobial peptide) [compound 148]", "values": [{"measurement": "Growth inhibition (%)", "setting": "[3]", "value": 76, "unit": "%"}]}
{"substance": "83 (RRRPLRPPFRPPIRPPVRPPFRPPVRP; Synthetic antimicrobial peptide) [compound 83]", "values": [{"measurement": "Growth inhibition (%)", "setting": "[3]", "value": 72, "unit": "%"}]}
{"substance": "42 (RRRPRPFPRPFPRPIPRPFPRPLPRPI; Synthetic antimicrobial peptide) [compound 42]", "values": [{"measurement": "Growth inhibition (%)", "setting": "[2]", "value": 66, "unit": "%"}]}
{"substance": "178 (RRRPLRPPFRPPVRPPFRPPFRPPFRP; Synthetic antimicrobial peptide) [compound 178]", "values": [{"measurement": "Growth inhibition (%)", "setting": "[3]", "value": 81, "unit": "%"}]}
{"substance": "162 (RRRPFRPPIRPPFRPPFRPPLRPPLRP; Synthetic antimicrobial peptide) [compound 162]", "values": [{"measurement": "Growth inhibition (%)", "setting": "[3]", "value": 68, "unit": "%"}]}
{"substance": "288 (RRRPPRLPRPLPVRPPPRVPRPFPLRP; Synthetic antimicrobial peptide) [compound 288]", "values": [{"measurement": "Growth inhibition (%)", "setting": "[1]", "value": 96, "unit": "%"}]}
{"substance": "85 (RRRPFRPPIRPPIRPPFRPPFRPPIRP; Synthetic antimicrobial peptide) [compound 85]", "values": [{"measurement": "Growth inhibition (%)", "setting": "[3]", "value": 67, "unit": "%"}]}
{"substance": "245 (RRRPPRLPRPFPVRPPPRVPRPFPVRP; Synthetic antimicrobial peptide) [compound 245]", "values": [{"measurement": "Growth inhibition (%)", "setting": "[1]", "value": 95, "unit": "%"}]}
{"substance": "158 (RRRPIRPPFRPPIRPPIRPPIRPPVRP; Synthetic antimicrobial peptide) [compound 158]", "values": [{"measurement": "Growth inhibition (%)", "setting": "[3]", "value": 67, "unit": "%"}]}
{"substance": "189 (RRRPFRPPFRPPIRPPVRPPIRPPFRP; Synthetic antimicrobial peptide) [compound 189]", "values": [{"measurement": "Growth inhibition (%)", "setting": "[3]", "value": 79, "unit": "%"}]}
{"substance": "258 (RRRPPRLPRPIPVRPPPRFPRPIPFRP; Synthetic antimicrobial peptide) [compound 258]", "values": [{"measurement": "Growth inhibition (%)", "setting": "[1]", "value": 92, "unit": "%"}]}
{"substance": "307 (RRRPPRLPRPVPVRPPPRVPRPVPFRP; Synthetic antimicrobial peptide) [compound 307]", "values": [{"measurement": "Growth inhibition (%)", "setting": "[1]", "value": 92, "unit": "%"}]}
{"substance": "116 (RRRPIRPPFRPPFRPPVRPPIRPPFRP; Synthetic antimicrobial peptide) [compound 116]", "values": [{"measurement": "Growth inhibition (%)", "setting": "[3]", "value": 69, "unit": "%"}]}
{"substance": "167 (RRRPFRPPLRPPFRPPLRPPLRPPVRP; Synthetic antimicrobial peptide) [compound 167]", "values": [{"measurement": "Growth inhibition (%)", "setting": "[3]", "value": 58, "unit": "%"}]}
{"substance": "81 (RRRPFRPPIRPPFRPPFRPPVRPPIRP; Synthetic antimicrobial peptide) [compound 81]", "values": [{"measurement": "Growth inhibition (%)", "setting": "[3]", "value": 80, "unit": "%"}]}
{"substance": "270 (RRRPPRLPRPLPFRPPPRVPRPVPVRP; Synthetic antimicrobial peptide) [compound 270]", "values": [{"measurement": "Growth inhibition (%)", "setting": "[1]", "value": 90, "unit": "%"}]}
{"substance": "17 (RRRPPRIPPRLPPRIPPRFPPRFPPRL; Synthetic antimicrobial peptide) [compound 17]", "values": [{"measurement": "Growth inhibition (%)", "setting": "Table 2, variants of SEQ ID NO:1, re-tested in the Bioscreen C", "value": 95, "unit": "%"}]}
{"substance": "104 (RRRPFRPPFRPPIRPPFRPPFRPPLRP; Synthetic antimicrobial peptide) [compound 104]", "values": [{"measurement": "Growth inhibition (%)", "setting": "[3]", "value": 76, "unit": "%"}]}
{"substance": "284 (RRRPPRLPRPLPVRPPPRFPRPVPVRP; Synthetic antimicrobial peptide) [compound 284]", "values": [{"measurement": "Growth inhibition (%)", "setting": "[1]", "value": 89, "unit": "%"}]}
{"substance": "273 (RRRPPRLPRPLPIRPPPRFPRPVPLRP; Synthetic antimicrobial peptide) [compound 273]", "values": [{"measurement": "Growth inhibition (%)", "setting": "[1]", "value": 92, "unit": "%"}]}
{"substance": "56 (RRRPRPIPRPFPRPFPRPFPRPFPRPI; Synthetic antimicrobial peptide) [compound 56]", "values": [{"measurement": "Growth inhibition (%)", "setting": "[2]", "value": 51, "unit": "%"}]}
